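Step 1: Grow cells in 96-well plates. Step 2: Expose to compound for 48 hours at 5 concentrations. Step 3: Interpolate endpoints linearly; if unreached, use highest concentration. Abbreviation: GI50, concentration required for 50% inhibition of growth.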 Activity calls are given as the source filed them. Cut-off read from the data, not from the text of the source: active = GI50 up to about 1.1 µM and inactive = higher.
Key:
Assay in all cases: NCI tumour cell line growth inhibition, 48 h
HOP-62 = test system: HOP-62
SF-539 = test system: SF-539
HCT-116 = test system: HCT-116
KM12 = test system: KM12
UACC-257 = test system: UACC-257
NCI-H460 = test system: NCI-H460
A549 = test system: A549
SR = test system: SR
CCRF-CEM = test system: CCRF-CEM
OVCAR-4 = test system: OVCAR-4
SW-620 = test system: SW-620
786-0 = test system: 786-0
OVCAR-5 = test system: OVCAR-5
CAKI-1 = test system: CAKI-1
IGROV-1 = test system: IGROV-1
RXF 631 = test system: RXF 631
OVCAR-8 = test system: OVCAR-8
SK-MEL-5 = test system: SK-MEL-5
TK-10 = test system: TK-10
KM-20L2 = test system: KM-20L2
SK-MEL-28 = test system: SK-MEL-28
EKVX = test system: EKVX
HCT-15 = test system: HCT-15
SF-268 = test system: SF-268
HCC 2998 = test system: HCC 2998
Malme-3M = test system: Malme-3M
OVCAR-3 = test system: OVCAR-3
LXFL 529 = test system: LXFL 529
SNB-78 = test system: SNB-78
A498 = test system: A498
NCI-H23 = test system: NCI-H23
SK-OV-3 = test system: SK-OV-3
MOLT-4 = test system: MOLT-4
HOP-18 = test system: HOP-18
LOX IMVI = test system: LOX IMVI
SNB-75 = test system: SNB-75
SF-295 = test system: SF-295
NCI-H226 = test system: NCI-H226
ACHN = test system: ACHN
M14 = test system: M14
M19-MEL = test system: M19-MEL
UO-31 = test system: UO-31
NCI-H522 = test system: NCI-H522
DMS-114 = test system: DMS-114
COLO 205 = test system: COLO 205
HL-60 = test system: HL-60
SNB-19 = test system: SNB-19
RXF 393 = test system: RXF 393
HOP-92 = test system: HOP-92
U-251 = test system: U-251
HT-29 = test system: HT-29
RPMI-8226 = test system: RPMI-8226
DLD-1 = test system: DLD-1
K562 = test system: K562
SN12C = test system: SN12C
UACC-62 = test system: UACC-62
DMS-273 = test system: DMS-273
SK-MEL-2 = test system: SK-MEL-2
XF498 = test system: XF498

C/C(=C\C(=O)Nc1ccc2[nH]nnc2c1)Nc1ccc2[nH]nnc2c1
GI50 (HOP-62): > 100 µM (inactive) | GI50 (SF-539): > 100 µM (inactive) | GI50 (HCT-116): > 100 µM (inactive) | GI50 (KM12): > 100 µM (inactive) | GI50 (UACC-257): > 100 µM (inactive) | GI50 (NCI-H460): > 100 µM (inactive) | GI50 (A549): > 100 µM (inactive) | GI50 (SR): > 100 µM (inactive) | GI50 (CCRF-CEM): > 100 µM (inactive) | GI50 (OVCAR-4): > 100 µM (inactive) | GI50 (SW-620): > 100 µM (inactive) | GI50 (786-0): > 100 µM (inactive) | GI50 (OVCAR-5): > 100 µM (inactive) | GI50 (CAKI-1): > 100 µM (inactive) | GI50 (IGROV-1): > 100 µM (inactive) | GI50 (RXF 631): > 100 µM (inactive) | GI50 (OVCAR-8): > 100 µM (inactive) | GI50 (SK-MEL-5): > 100 µM (inactive) | GI50 (TK-10): > 100 µM (inactive) | GI50 (KM-20L2): > 100 µM (inactive) | GI50 (SK-MEL-28): > 100 µM (inactive) | GI50 (EKVX): > 100 µM (inactive) | GI50 (HCT-15): > 100 µM | GI50 (SF-268): > 100 µM (inactive) | GI50 (HCC 2998): > 100 µM (inactive) | GI50 (Malme-3M): > 100 µM (inactive) | GI50 (OVCAR-3): > 100 µM (inactive) | GI50 (LXFL 529): > 100 µM (inactive) | GI50 (SNB-78): > 100 µM (inactive) | GI50 (A498): > 100 µM (inactive) | GI50 (NCI-H23): > 100 µM (inactive) | GI50 (SK-OV-3): > 100 µM (inactive) | GI50 (MOLT-4): > 100 µM (inactive) | GI50 (HOP-18): > 100 µM (inactive) | GI50 (LOX IMVI): > 100 µM (inactive) | GI50 (SNB-75): > 100 µM (inactive) | GI50 (SF-295): > 100 µM (inactive) | GI50 (NCI-H226): > 100 µM (inactive) | GI50 (ACHN): > 100 µM (inactive) | GI50 (M14): > 100 µM (inactive) | GI50 (M19-MEL): > 100 µM (inactive) | GI50 (UO-31): > 100 µM (inactive) | GI50 (NCI-H522): > 100 µM (inactive) | GI50 (DMS-114): > 100 µM (inactive) | GI50 (COLO 205): > 100 µM (inactive) | GI50 (HL-60): > 100 µM (inactive) | GI50 (SNB-19): > 100 µM (inactive) | GI50 (RXF 393): > 100 µM (inactive) | GI50 (HOP-92): > 100 µM (inactive) | GI50 (U-251): > 100 µM (inactive) | GI50 (HT-29): > 100 µM (inactive) | GI50 (RPMI-8226): > 100 µM (inactive) | GI50 (DLD-1): > 100 µM (inactive) | GI50 (K562): > 100 µM (inactive) | GI50 (SN12C): > 100 µM (inactive) | GI50 (UACC-62): > 100 µM (inactive)

CC1=CC(O)(c2ccc(-c3ccccc3Cl)cc2)OC1=O (stereo not drawn)
GI50 (HOP-62): > 100 µM (inactive) | GI50 (SF-539): > 100 µM (inactive) | GI50 (KM12): > 100 µM (inactive) | GI50 (UACC-257): > 100 µM (inactive) | GI50 (NCI-H460): > 100 µM (inactive) | GI50 (A549): > 100 µM (inactive) | GI50 (CCRF-CEM): > 100 µM (inactive) | GI50 (OVCAR-4): > 100 µM (inactive) | GI50 (SW-620): > 100 µM (inactive) | GI50 (786-0): > 100 µM (inactive) | GI50 (OVCAR-5): > 100 µM (inactive) | GI50 (CAKI-1): > 100 µM (inactive) | GI50 (IGROV-1): > 100 µM (inactive) | GI50 (RXF 631): > 100 µM (inactive) | GI50 (OVCAR-8): > 100 µM (inactive) | GI50 (SK-MEL-5): > 100 µM (inactive) | GI50 (TK-10): > 100 µM (inactive) | GI50 (KM-20L2): > 100 µM (inactive) | GI50 (SK-MEL-28): > 100 µM (inactive) | GI50 (EKVX): > 100 µM (inactive) | GI50 (HCT-15): > 100 µM | GI50 (SF-268): > 100 µM (inactive) | GI50 (HCC 2998): > 100 µM (inactive) | GI50 (Malme-3M): > 100 µM (inactive) | GI50 (OVCAR-3): > 100 µM (inactive) | GI50 (LXFL 529): > 100 µM (inactive) | GI50 (NCI-H23): > 100 µM (inactive) | GI50 (DMS-273): > 100 µM (inactive) | GI50 (SK-OV-3): > 100 µM (inactive) | GI50 (MOLT-4): > 100 µM (inactive) | GI50 (HOP-18): > 100 µM (inactive) | GI50 (LOX IMVI): > 100 µM (inactive) | GI50 (SNB-75): 43.1 µM (inactive) | GI50 (SF-295): > 100 µM (inactive) | GI50 (SK-MEL-2): > 100 µM (inactive) | GI50 (ACHN): > 100 µM (inactive) | GI50 (M14): > 100 µM (inactive) | GI50 (M19-MEL): > 100 µM (inactive) | GI50 (UO-31): > 100 µM (inactive) | GI50 (NCI-H522): > 100 µM (inactive) | GI50 (DMS-114): > 100 µM (inactive) | GI50 (COLO 205): > 100 µM (inactive) | GI50 (HL-60): > 100 µM (inactive) | GI50 (SNB-19): > 100 µM (inactive) | GI50 (RXF 393): > 100 µM (inactive) | GI50 (HOP-92): > 100 µM (inactive) | GI50 (U-251): > 100 µM (inactive) | GI50 (HT-29): > 100 µM (inactive) | GI50 (RPMI-8226): > 100 µM (inactive) | GI50 (DLD-1): > 100 µM (inactive) | GI50 (K562): > 100 µM (inactive) | GI50 (SN12C): > 100 µM (inactive) | GI50 (UACC-62): > 100 µM (inactive)

O=[N+]([O-])c1nccn1CC(O)c1ccc(F)cc1 (stereo not drawn)
GI50 (HOP-62): > 100 µM (inactive) | GI50 (SF-539): > 100 µM (inactive) | GI50 (KM12): > 100 µM (inactive) | GI50 (UACC-257): > 100 µM (inactive) | GI50 (NCI-H460): > 100 µM (inactive) | GI50 (A549): > 100 µM (inactive) | GI50 (CCRF-CEM): > 100 µM (inactive) | GI50 (OVCAR-4): > 100 µM (inactive) | GI50 (SW-620): > 100 µM (inactive) | GI50 (786-0): > 100 µM (inactive) | GI50 (OVCAR-5): > 100 µM (inactive) | GI50 (CAKI-1): > 100 µM (inactive) | GI50 (IGROV-1): > 100 µM (inactive) | GI50 (RXF 631): > 100 µM (inactive) | GI50 (OVCAR-8): > 100 µM (inactive) | GI50 (SK-MEL-5): > 100 µM (inactive) | GI50 (TK-10): > 100 µM (inactive) | GI50 (KM-20L2): > 100 µM (inactive) | GI50 (SK-MEL-28): > 100 µM (inactive) | GI50 (EKVX): > 100 µM (inactive) | GI50 (HCT-15): > 100 µM | GI50 (SF-268): > 100 µM (inactive) | GI50 (Malme-3M): > 100 µM (inactive) | GI50 (OVCAR-3): > 100 µM (inactive) | GI50 (LXFL 529): > 100 µM (inactive) | GI50 (XF498): > 100 µM (inactive) | GI50 (A498): > 100 µM (inactive) | GI50 (NCI-H23): > 100 µM (inactive) | GI50 (DMS-273): > 100 µM (inactive) | GI50 (SK-OV-3): > 100 µM (inactive) | GI50 (MOLT-4): > 100 µM (inactive) | GI50 (HOP-18): > 100 µM (inactive) | GI50 (LOX IMVI): > 100 µM (inactive) | GI50 (SNB-75): > 100 µM (inactive) | GI50 (SF-295): > 100 µM (inactive) | GI50 (SK-MEL-2): > 100 µM (inactive) | GI50 (NCI-H226): > 100 µM (inactive) | GI50 (ACHN): > 100 µM (inactive) | GI50 (M14): > 100 µM (inactive) | GI50 (M19-MEL): > 100 µM (inactive) | GI50 (UO-31): > 100 µM (inactive) | GI50 (NCI-H522): > 100 µM (inactive) | GI50 (DMS-114): > 100 µM (inactive) | GI50 (COLO 205): > 100 µM (inactive) | GI50 (HL-60): > 100 µM (inactive) | GI50 (SNB-19): > 100 µM (inactive) | GI50 (RXF 393): > 100 µM (inactive) | GI50 (HOP-92): > 100 µM (inactive) | GI50 (U-251): > 100 µM (inactive) | GI50 (HT-29): > 100 µM (inactive) | GI50 (RPMI-8226): > 100 µM (inactive) | GI50 (K562): > 100 µM (inactive) | GI50 (SN12C): > 100 µM (inactive) | GI50 (UACC-62): > 100 µM (inactive)
